Source: patent US5332739A, “Pyrimidinedione derivatives and antiarrhythmic agents containing same” (Mitsui Toatsu Chemicals, Incorporated, priority 1990, dated 1994)
Structures can show the parent of a compound that is named as a salt.

What was measured:
[1] = test system: Purkinje fiber of the right ventricular free wall; assay: Influence on Myocardial Action Potential Duration Time (APD75); assay type: cell-based, hybrid adult dog; conditions: Canis lupus familiaris, 20 min, 20 minutes' incubation, 1 Hz, 37° C.; for percent prolongation of action potential duration (APD75) at 1 µg/mL: Dose 1.0 (μg, ml); for percent prolongation of action potential duration (APD75) at 3 µg/mL: Dose 3.0 (μg, ml); for percent prolongation of action potential duration (APD75) at 10 µg/mL: Dose 10.0 (μg, ml)
Experimental: To a hybrid adult dog, 30 mg/kg of pentobarbital was administered through a vein, and after being anesthetized, the heart was removed. Afterward, the right ventricular free wall of the heart was cut and taken out in a Tyrode solution.
The taken right ventricular free wall was fixed in an incubator at 37° C., and a nutritional solution (20 ml of the Tyrode solution) was refluxed.
In this isolated condition, myocardial action potential duration times (APD75) were measured before and after the administration of the respective compounds prepared in the above examples in Table A and d-sotalol as a control medicine, and APD75 (%) was calculated from the measured results in accordance with the formula: […]
A: APD75 before administration
B: APD75 after administration
Here, APD75 was measured as follows: A field stimulation of 1 Hz was given to the right ventricular free wall, and any variation of an action potential was depicted on an oscilloscope via a glass microelectrode (10 to 20 M.OMEGA.) thrust into a Purkinje fiber of the free wall and via an amplifier. Afterward, a waveform on the oscilloscope was analyzed by the use of a computer, and the time of from a point of the action potential generation to a point of 75% repolarization was measured. This measured time was regarded as the myocardial action potential duration time (APD75).
The compounds and d-sotalol shown in Table A were separately added to the refluxing nutritional solution (20 ml), and after 20 minutes' incubation, APD75 after the administration was calculated from the variation of the myocardial action potential duration time.
Incidentally, this test was carried out in accordance with a Sato et al's method [H. Sato, K. Hashimoto, Arzneimeittel Forschung, 34 (1), 3a, 376-380 (1984)].

[2] = Toxicity Test 1 (oral, mortality 24 hours after administration); conditions: mouse, in vivo, 300 mg/kg (P.O), 2 to 4 mice per group, read-out: Mortality Rate (%)
Experimental: Each of the compounds prepared in the above-mentioned examples shown in Table B was administered into a mouse (ddy strain, male). In each case, the administration was effected by oral administration in a dose of 300 mg/kg.
A mortality rate (number of specimens: one group=2 to 4 mice) of the mice 24 hours after the administration was calculated, and the results are set forth in Table B.

[3] = test system: ventricular muscle (right ventricle); assay: Influence on Ventricular Muscle Refractory Period (ERP); assay type: in vivo, mongrel adult dog; conditions: Canis lupus familiaris, iv, anesthetized dog, read-out: ERP (%; extensibility of refractory period); for change in vivo at 0.1 mg/kg: Dose 0.1 mg/kg i.v.; for change in vivo at 0.3 mg/kg: Dose 0.3 mg/kg i.v.; for change in vivo at 1 mg/kg: Dose 1.0 mg/kg i.v.; for change in vivo at 3 mg/kg: Dose 3.0 mg/kg i.v.
Experimental: Refractory periods were measured in the following manner before and after each of the compounds and d-sotalol shown an Table A was separately administered to a vein or a duodenum, and ERP (%; extensibility of refractory period) was calculated from the measured values in accordance with the following formula: […]
W: Refractory period after administration
Y: Refractory period before administration
To a mongrel adult dog, 30 mg/kg of pentobarbital was administered intravenously, and after being anesthetized, a pair of silver-silver chloride electrodes separated by 3 mm was sewn on an opened right ventricule, and electrical stimulation was given at an interval of 400 msec at a duration time of 4 msec under a current twice as much as the threshold. Afterward, a small amount of alcohol was injected into a sinus artery in order to extinguish a pacemaker activity, and the ventricular refractory period (ERP) was measured under ventricule pacing.
That is, 1 train comprised 10 stimulations, and an interval between two of the trains was usually 400 msec. At the time of the refractory period measurement, however, the above interval was shortened every 10 smec, and the interval between the trains at the time when reaction to the first stimulation of the train disappeared was regarded as the refractory period.
In this case, the electrical stimulation was fed in accordance with a program by a heart stimulation device (Diamedical Co., Ltd.; DHM-226-3).

SMILES | percent prolongation of action potential duration (APD75) at 1 µg/mL [1] | percent prolongation of action potential duration (APD75) at 3 µg/mL [1] | mortality at 24 h [2] | percent prolongation of action potential duration (APD75) at 10 µg/mL [1] | change in vivo at 0.1 mg/kg [3] | change in vivo at 0.3 mg/kg [3] | change in vivo at 1 mg/kg [3] | change in vivo at 3 mg/kg [3] | percent prolongation of action potential duration (APD75) at 0.3 µg/mL ([1]; Dose 0.3 (μg, ml))
CC(=O)c1ccc(OCCCN2CCN(c3cc(=O)n(C)c(=O)n3C)CC2)cc1 [Compound 4] | 5% | 8% | 0% | – | – | – | – | – | –
COC(=O)c1ccccc1OCCCN1CCN(c2cc(=O)n(C)c(=O)n2C)CC1 [Compound 21] | 11% | 23% | 0% | 26% | 7.1% | 7.1% | 7.1% | 14.3% | –
CC(=O)c1cc(Cl)ccc1OCCCN1CCN(c2cc(=O)n(C)c(=O)n2C)CC1 [Compound 45] | 42% | 71% | 50% | 75% | 0% | 2.4% | 9.5% | 18.6% | –
Cn1c(N2CCN(CCCOc3ccc(Cl)cc3)CC2)cc(=O)n(C)c1=O [Compound 64, 6-[4-(3-[4-chlorophenoxy]propyl)piperazin-1-yl]-1,3-dimethyl-2,4(1H,3H)-pyrimidinedione.hydrochloride] | 14% | 25% | 0% | – | 2% | 6.3% | 13% | 24.3% | 7%
Cn1c(N2CCN(CCCOc3ccc(S(C)(=O)=O)cc3)CC2)cc(=O)n(C)c1=O [Compound 7] | – | – | 0% | – | – | – | – | – | –
Cn1c(N2CCN(CCCCOc3ccc(Cl)cc3)CC2)cc(=O)n(C)c1=O [Compound 82, 6-[4-(4-[4-chlorophenoxy]butyl)piperazin-1-yl]-1,3-dimethyl-2,4(1H,3H)-pyrimidinedione.hydrochloride] | 16% | 28% | 0% | 43% | – | – | – | – | –
Cn1c(N2CCN(CCCOc3ccc(C(F)(F)F)cc3)CC2)cc(=O)n(C)c1=O [Compound 2] | – | – | 50% | – | – | – | – | – | –
Cn1c(N2CCN(CCCOc3ccccc3C(=O)CCc3ccccc3)CC2)cc(=O)n(C)c1=O [Compound 31] | 13% | 16% | – | – | 0% | 0% | 6.3% | 12.9% | –
CC(=O)c1ccccc1OCCCN1CCN(c2cc(=O)n(C)c(=O)n2C)CC1 [Compound 17, 1,3-dimethyl-6-[4-(3-[2-acetylphenoxy)propyl)piperazin-1-yl]-2,4(1H,3H)-pyrimidinedione] | 28% | 43% | – | 59% | 3.5% | 8.3% | 13.5% | 17.3% | –
Cn1c(N2CCN(CCCOc3ccccc3N)CC2)cc(=O)n(C)c1=O [Compound 69] | – | 24% | 0% | 34% | 0% | 6.3% | 12.5% | – | –
Cn1c(N2CCN(CCOc3ccccc3)CC2)cc(=O)n(C)c1=O [Compound 65, 1,3-dimethyl-6-[4-(2-phenoxyethyl)piperazin-1-yl]-2,4(1H,3H)-pyrimidinedione.hydrochloride] | – | 14% | – | 17% | 0% | 0% | 0% | 0% | –
Cn1c(N2CCN(CCCOc3ccc(C(=O)c4ccccc4)cc3)CC2)cc(=O)n(C)c1=O [Compound 9] | 6% | 21% | – | 30% | 5.6% | 5.6% | 11.1% | 16.7% | –
CC(=O)c1ccccc1CCN1CCN(c2cc(=O)n(C)c(=O)n2C)CC1 [Compound 85, 1,3-dimethyl-6-[4-(2-[2-acetylphenyl]ethyl)piperazin-1-yl]-2,4(1H,3H)-pyrimidinedione.oxalate] | – | – | 0% | – | – | – | – | – | –
Cn1c(N2CCN(CCCOc3ccc(-n4cncn4)cc3)CC2)cc(=O)n(C)c1=O [Compound 6] | 5% | 10% | 0% | 25% | 0% | 0% | 0% | 6.2% | –
CCN(CCCOc1ccc(C(=O)c2ccccc2)cc1)CCNc1cc(=O)n(C)c(=O)n1C [Compound 117, 1,3-dimethyl-6-[2-(N-ethyl-3-[4-benzoylphenoxy]propylamino)ethylamino]-2,4(1H,3H)-pyrimidinedione.oxalate] | 17% | 23% | – | – | 3.2% | 3.2% | 6.9% | 16.1% | –
CC(C)C(=O)c1ccccc1OCCCN1CCN(c2cc(=O)n(C)c(=O)n2C)CC1 [Compound 25] | 13% | 26% | – | – | 0% | 0% | 0% | 7.6% | –
Cn1c(N2CCN(CCCOc3ccc(Cl)cc3S(C)(=O)=O)CC2)cc(=O)n(C)c1=O [Compound 50] | 6% | 15% | – | 26% | 0% | 5.6% | 5.6% | 11.1% | –
